Entries after “also recorded” stand apart in the source; their conditions may differ. Read-outs that look alike come from different tables or passages of the source.
Tests used:
TPH1 (104–394) = biological target: T1, TPH1 (104–394) (Homo sapiens, UniProt P17752); assay: Biacore surface plasma resonance binding / competition experiments; details: SPR, previously estimated, data not shown; read-out: KD toward TPH1
T1 construct: His6 (N, cleaved yes); made in house; host or cells: Escherichia coli BL21 Rosetta (DE3)
Experimental: Biosensor experiments were performed on a Biacore T100 instrument (GE Healthcare). Biotinylation and capture of TPH1 was performed by adding a volume of freshly prepared EZ-link solution (dissolved in water) to an aliquot of TPH1(104–394) in a 2:1 molar ratio and incubated on ice. After 30 min of incubation, the reaction was stopped by the addition of 100 mM of Tris pH7.5. Unreacted biotin was removed by passing the solution over a fast desalting column (Thermo scientific #89849, equilibrated with PBS, 0.5 mM TCEP) three times. Biotinylated protein was aliquoted and kept at -80°C until use. Biotinylated TPH1 (104–394) was immobilized at 22°C on a SA chip surface (GE Healthcare) equilibrated with 10 mM Hepes, 150 mM NaCl, 1 mM TCEP, 0.05% Tween20, 5% glycerol, pH7.6. Approximately 3200RU were immobilized using this procedure. A streptavidin surface served as the reference.
Binding experiments were performed at 20°C using 10 mM Hepes, 150 mM NaCl, 1 mM TCEP, 0.05% Tween20, 5% glycerol, pH7.6, 2% DMSO as running buffer. […] Using a flow rate of […], samples were injected for 120 s and dissociation was monitored for 240 s. […]

TPH1 = test system: TPH1; set-up: method as in Liu et al., 2008; details: ref Liu et al., 2008; read-out: TPH1 activity IC50 (literature); cited from earlier work
[1] = test system: BON (human pancreatic carcinoid) cell line; assay: BON cell assay of D4-5-HT production from deuterated tryptophan; type: cell-based; details: BON cells; for IC50: read-out: IC50 inhibition of D4-5-HT production
Experimental: (§1) 5-HT newly synthesized through TPH activity was assessed both in vitro and in vivo by addition of deuterium labeled substrate (deuterated tryptophan – TRP-d5) and subsequently generated deuterium labeled product (deuterated serotonin – 5HT-d4) (Figure 6A). BON (human pancreatic carcinoid) cell line was a gift from Dr. Courtney M. Townsend (University of Texas, Galveston, TX, USA) and cultured as previously described ([Tran et al., 2004]). Cells were seeded overnight in 96-well plates at 1.2 × 10^5 cells per well in 200 μL growth media containing 1% FBS, and incubated at 37°C, 5% CO2. After 24 h, cell media was exchanged for […] serum-free media. All reagents added to the cells in subsequent steps were diluted in serum-free media. Cells were treated with 25 μL of either compound or DMSO vehicle (1 % v/v) for 15 min at 37°C, 5% CO2 and then treated with 25 μL 196 mM deuterated-tryptophan (Isotec, UK) for a further 2 h at 37°C, 5% CO2. BON cell lysates were then prepared by removal of all media with subsequent addition of […] HTAB. These lysates were further analyzed for D4-5-HT content by LCMS. Cell toxicity was also assessed in BON cells using a standard lactate dehydrogenase (LDH) assay according to instructions.

BON cells = assay: LDH cell toxicity assay in BON cells; type: cell-based, human; details: Figure 5B
Experimental: as §1

Human TPH-1 = biological target: T2, Human TPH-1 (Homo sapiens, UniProt P17752); assay: In vitro human TPH-1 enzyme activity assay (fluorescence); type: biochemical; details: literature ref Liu et al., 2008
T2 sequence (P17752 1-444): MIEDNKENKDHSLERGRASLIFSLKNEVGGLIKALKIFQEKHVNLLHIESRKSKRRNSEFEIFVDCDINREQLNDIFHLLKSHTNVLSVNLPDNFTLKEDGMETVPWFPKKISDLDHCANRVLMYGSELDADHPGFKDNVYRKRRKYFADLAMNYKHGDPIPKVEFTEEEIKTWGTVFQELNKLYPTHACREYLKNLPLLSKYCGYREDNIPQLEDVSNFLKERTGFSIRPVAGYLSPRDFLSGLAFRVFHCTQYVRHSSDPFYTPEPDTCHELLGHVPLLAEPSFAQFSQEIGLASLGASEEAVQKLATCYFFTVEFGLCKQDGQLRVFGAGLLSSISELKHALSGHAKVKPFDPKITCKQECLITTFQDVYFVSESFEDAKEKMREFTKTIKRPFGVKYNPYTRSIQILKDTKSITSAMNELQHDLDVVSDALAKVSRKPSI
Experimental: Human TPH-1 and Human TPH-2 enzyme assays were carried out at room temperature with atmosphere oxygen in a volume of 25 μL. A base buffer of 40 mM HEPES pH 7.0, 200 mM ammonium sulfate was made and stored at 4°C. On the day of assay, final concentrations of 10 μM iron ammonium sulfate, 0.1 mg mL^-1 BSA, 25 μg mL^-1 catalase, and 0.04% Chaps were added and designated as enzyme buffer. Substrate buffer was made the same way but for the addition of a final concentration of 10 mM DTT. Enzymes were diluted as follows: 1.25x = 12.5 nM TPH1 (Final = 10 nM) or 1.25x = 37.5 nM TPH2 (Final = 30 nM) in enzyme buffer. Substrates were diluted as follows: 5x = 200 μM (6R)-5,6,7,8-Tetrahydrobiopterin dihydrochloride (BH4) (Final = 40 μM) and 5x = 100 μM Tryptophan (Final = 20 μM) in substrate buffer. Compounds were serially diluted 1:1 in DMSO to 50x = 500 μM (Final = 10 μM). Assays were performed in GNF Custom Greiner Black 384-well plates. Compounds were added at 0.5 μL per well. Enzymes were added at 20 μL per well. Compounds and enzymes were pre-incubated 15 min at room temperature. Substrates were added at 5 μL per well to initiate the reaction. The plates were covered and incubated at room temperature: 30 min for TPH1 and 60 min for TPH2. The reactions were quenched with the addition of 25 μL 30% sulfuric acid.

Row | Structure (SMILES) | Kd (TPH1 (104–394)) [µM] | IC50 (TPH1) [µM] | IC50 [1] [µM] | LDH tox (BON cells) [µM] | difference between literature TPH1 IC50 and the values reported here (Human TPH-1) | IC50 inhibition of D4-5-HT production [1] | IC50 ([1]; Figure 5B, 15 min compound then 2 h deuterated tryptophan, n = 3) [µM]
1 | N[C@@H](Cc1c[nH]c2ccccc12)C(=O)O [L-Trp] | 56 |  |  |  |  |  | 
2 | C[C@H](O)[C@H](O)C1=Nc2c(nc(N)[nH]c2=O)NC1 [BH2] | 11 |  |  |  |  |  | 
3 | Nc1nc(OC(c2ccc(-c3cccc(F)c3)cc2)C(F)(F)F)cc(-c2ccc(C[C@H](N)C(=O)O)cc2)n1 (stereo partly shown) [LP533401] |  | 0.7 | 12.4 | > 30 |  |  | 
4 | N[C@@H](Cc1ccc(Cl)cc1)C(=O)O (racemic) [pCPA, p-chlorophenylalanine] |  | 250 |  | > 30 | approximately 50 fold | could not be established; also recorded: not measurable | > 30

Source: article PMC5418348, “Identification of a Novel Allosteric Inhibitory Site on Tryptophan Hydroxylase 1 Enabling Unprecedented Selectivity Over all Related Hydroxylases” (Frontiers in Pharmacology, 2017)
